# Test results: paper PMC11489250, “Optimized methods for measuring competitive binding of chemical substances to thyroid hormone distributor proteins transthyretin and thyroxine binding globulin” (Archives of Toxicology, 2024)
# Like-named read-outs stand apart in the source and are kept apart here.
# Legend:
# [1] = target: TTR; conditions: calculated by Ki = 1/binding constant; ref Cao et al. [2011]; read-out: TTR literature Ki; cited from earlier work
# [2] = target: TBG; conditions: calculated by Ki = 1/binding constant; ref Cao et al. [2011]; read-out: TBG literature Ki; cited from earlier work
# [3] = target: T1, thyroxine-binding globulin (TBG) (Homo sapiens, UniProt P05543); assay: Competitive TBG-binding assay with FITC-T4 (fluorescence polarization readout)
# T1 construct: purchased Bio-rad Laboratories, Inc. (Veenendaal, The Netherlands)
# T1 sequence (P05543 21-415): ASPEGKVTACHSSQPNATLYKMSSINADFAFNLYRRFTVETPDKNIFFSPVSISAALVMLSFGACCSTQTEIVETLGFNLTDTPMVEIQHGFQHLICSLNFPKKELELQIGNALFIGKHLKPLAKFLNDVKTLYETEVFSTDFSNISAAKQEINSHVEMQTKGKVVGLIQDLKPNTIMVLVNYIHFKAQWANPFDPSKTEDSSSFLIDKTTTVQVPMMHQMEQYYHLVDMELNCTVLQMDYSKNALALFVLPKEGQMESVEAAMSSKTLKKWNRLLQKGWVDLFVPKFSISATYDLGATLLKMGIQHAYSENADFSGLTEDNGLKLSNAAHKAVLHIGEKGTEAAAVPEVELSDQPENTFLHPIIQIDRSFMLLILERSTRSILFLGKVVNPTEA
# Procedure: Prepared plates were first shaken for 5 min and then incubated for 15 min at room temperature before being analysed by the microplate reader at FP mode (CLARIOstar Plus, BMG LABTECH).
# Accordingly, dilution series of all compounds were prepared in DMSO. First, 24 µL Tris–HCl buffer was pipetted to the wells, followed by 1 µL of the compound stock solution. […] Solvent (DMSO) concentrations in all conditions were 1%. The plates were shaken for 5 min on a plate shaker, followed by an incubation for 15 min at room temperature.
# The adjusted polarization was set to a reference value of 35 mP. The adjustment gain values ranged from 1900 to 2200. The plate layout of TBG-binding assay is provided in Supplementary Information file (Section 4).
# For the competitive TBG-binding experiments, concentration–response curves were fitted:2 r=rmin+rmax-rmin/1+IC50/X^HillSlope with rmin and rmax being the minimum and maximum anisotropy values, respectively. X is the concentration of added competitor. Equations that were used for the calculation of the ICX and Ki values in the TTR-binding assays (Supplementary Information, Section 3) were also used to determine the ICX and Ki values in TBG-binding assays without any changes, respectively. The single Kd, IC20, IC50 and Ki were determined based on replicates (n) in each experiment, and then the average and confidence intervals were determined based on the Kd, IC20, IC50 and Ki values from sperate experiments (N).
# Alternatively, another approach to determine ICX, Kd and Ki values based on a theoretical model of ligand–protein binding biochemistry was taken as described in detail in the Supplementary Information file (Section 5). For this approach, R was used to fit the model to the data. The results obtained from the two approaches were compared in Section 3.4.
# S5.2 Ki and IC50 estimation
# [4] = target: T2, Human TTR (Homo sapiens, UniProt P02766); assay: Optimized competitive TTR-binding assay with FITC-T4 (fluorescence intensity readout)
# T2 construct: Transthyretin (prealbumin, TTR) >95% from human plasma; purchased Sigma Aldrich (Zwijndrecht, The Netherlands); host or cells: human plasma
# Procedure: All TTR-binding experiments were performed in black 96-well polystyrene nonbinding plates. Experimental wells and background wells were prepared in triplicate per plate. […] Fluorescence intensity (FI) was measured at λex = 485 ± 20 nm and λem = 528 ± 20 nm (CLARIOstar Plus microplate reader, BMG LABTECH).
# To test the effect of the change in temperature and incubation time, a saturation experiment (N = 3, n = 3) was performed in Tris–HCl buffer (0.1 M Tris (Thermo Scientific, Rockford, USA), 0.1 M NaCl (Merck KGaA, Darmstadt, Germany), 1 mM EDTA (VWR International, B.V. Amsterdam, The Netherlands); pH 8.0). […] Two 96-well plates were prepared at the same time. After shaking for 5 min on a plate shaker, one prepared plate was incubated on ice (at 4 °C) and another plate was incubated at room temperature (22 °C). For both plates the fluorescence was measured at different time points: 5 min, 15 min, 60 min and 120 min.
# First, 48 µL Tris–HCl buffer (pH 8.0) was pipetted to the wells, followed by 2 µL of the compound (in DMSO). […] Final solvent (DMSO) concentrations in all conditions amounted to 1%. All plates were shaken for 5 min on a plate shaker, followed by an incubation for 15 min at room temperature. The standard operation procedure (SOP) is provided in Supplementary Information file (Section 3).
# Calculations of the ICX, Kd and Ki values of TTR-binding assays are described in the Supplementary Information file (Section 3).
# 3.7.5 The competitive TTR binding screening assay
# 3.7.8 Processing data to determine IC50 and calculate Ki value
# [5] = test system: Recombinant TTR; parameters: method as in Marchesini et al. [2006]; conditions: highest concentration tested 10 µM; ref Marchesini et al. [2006]; cited from earlier work
# [6] = test system: TBG; parameters: method as in Marchesini et al. [2006]; conditions: highest concentration tested 10 µM; ref Marchesini et al. [2006]; cited from earlier work
# [7] = T4EQi = highest human blood concentration x T4-REPi
structure (smiles),measurement,setting,value
"CC(C)(c1ccc(O)cc1)c1ccc(O)cc1 [BPA, bisphenol-A]",Ki,[1],3.23 µM
same,Ki,[2],1.7 µM
same,Ki,"[3]; 5 nM FITC-T4, 10 nM TBG, RT, 15 min, derived from IC20, descriptive model (Graphpad), average [95% CI], read-out: TBG Ki",16.8 µM
same,IC50,"[3]; 5 nM FITC-T4, 10 nM TBG, RT, 15 min, descriptive model (Graphpad), average [95% CI]",172 µM
same,IC20,"[3]; 5 nM FITC-T4, 10 nM TBG, RT, 15 min, descriptive model (Graphpad), average [95% CI], read-out: TBG IC20",32.6 µM
same,IC20,"[3]; 5 nM FITC-T4, 10 nM TBG, RT, theoretical model in R, average [95% CI], read-out: TBG IC20, theoretical model",35.7 µM
same,Ki,"[3]; 5 nM FITC-T4, 10 nM TBG, RT, theoretical model in R, average [95% CI], read-out: TBG Ki values, theoretical model",18.4 µM
same,"Relative potency compared to T4 (T4-REP), TBG-binding assay",[3]; T4-REPi = IC20(T4)/IC20(i),0.0003
same,T4EQ concentration (TBG binding),[3]; [7],0.023 nM
same,Contribution to T4EQ concentration (TBG binding),"[3]; mixture of highest human blood concentrations of TBBPA, triclosan and BPA",1.1%
same,IC20,"[4]; 110 nM FITC-T4, 30 nM TTR, RT, 15 min, average [95% CI], read-out: TTR IC20",14.7 µM
same,IC50,"[4]; 110 nM FITC-T4, 30 nM TTR, RT, 15 min, average [95% CI], read-out: TTR IC50",63.1 µM
same,Ki,"[4]; 110 nM FITC-T4, 30 nM TTR, RT, 15 min, derived from IC20, average [95% CI], read-out: TTR Ki",32.1 µM
same,"Relative potency compared to T4 (T4-REP), TTR-binding assay",[4]; T4-REPi = IC20(T4)/IC20(i),0.002
same,T4EQ concentration (TTR binding),[4]; [7],0.16 nM
same,Contribution to T4EQ concentration (TTR binding),[4]; mixture of highest human blood concentrations of five model compounds,0.8%
same,competitive binding to TTR (in words),[5],no competitive binding
same,competitive binding to TBG (in words),[6],no competitive binding
